The target in one data set is T1, hAPJ (Homo sapiens, UniProt P35414).
T1 sequence (P35414 1-380): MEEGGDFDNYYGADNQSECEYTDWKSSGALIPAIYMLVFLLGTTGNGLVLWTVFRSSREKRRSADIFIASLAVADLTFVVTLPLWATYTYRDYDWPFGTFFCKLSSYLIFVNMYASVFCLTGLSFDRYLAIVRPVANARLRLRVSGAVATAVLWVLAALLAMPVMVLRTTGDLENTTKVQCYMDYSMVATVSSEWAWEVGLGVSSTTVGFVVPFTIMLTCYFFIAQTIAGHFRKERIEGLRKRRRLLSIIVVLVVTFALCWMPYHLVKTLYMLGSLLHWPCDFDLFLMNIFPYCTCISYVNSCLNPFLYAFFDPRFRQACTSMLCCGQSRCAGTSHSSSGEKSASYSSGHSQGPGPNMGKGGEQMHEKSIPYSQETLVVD
Briefly: hAPJ Calcium Flux Assay. Conditions: Chem-5 APJ stable cells, calcium flux stimulation; read-out: hAPJ Ca2+ Flux EC50. The class given is cell-based. How it is done: Chem-5 APJ stable cells (Millipore # HTS068C) were plated in 384-well format with 10,000 cells/well in 25 ul growth media, then grown 24 hours in a 37° C. tissue culture incubator. One hour before the assay, 25 ul/well FLIPR Calcium 4 dye (Molecular Devices R8142) with 2.5 mM probenecid was added, and cells were incubated one hour in a 37° C. tissue culture incubator. Peptides were solubilized in HBSS, HEPES & 0.1% BSA buffer, and serially-diluted 10-fold, from 50 uM to 5 pM, in triplicate. FLIPR Tetra was used to add peptide to the cells with dye (1:5, for final peptide concentrations ranging from 10 uM to 1 pM). FLIPR dye inside the cells emitted fluorescence after binding to calcium, while fluorescence from outside the cells was masked. […] Readings were done for 3 minutes total, beginning 10 seconds before the peptide addition. Maximum-minimum values were calculated and plotted for each peptide concentration, and GraphPad prism software was used to calculate EC50 values at the curve inflection points, for calcium flux stimulation by peptides.

Data set [1] is described as follows: Surrogate Activity-Based Plasma Stability Assay. It is filed as in vitro ADME. Conditions: rat. The source says: Surrogate Activity-Based Plasma Stability Assay:
2) Calculate slope of value above and […]

Data set [2] in a line: Plasma Stability Assay (LC-MS). It is filed as in vitro ADME. Conditions: male, Sprague-Dawley, heparinized rat plasma, 37° C., read-out: Plasma stability t½. How it is done:
Plasma Stability Assay: Materials: Working solution: 1 mg/mL test article is prepared in Milli-Q water Extraction solution: Methanol:Acetonitrile:Water (1:1:1) with 0.1% Formic Acid and 400 ng/mL Glyburide. Plasma: Male Sprague-Dawley rat plasma (with sodium heparin), purchased from Bioreclamation LLC (Liverpool, N.Y.). Test article was prepared in one of the following biological matrices: heparinized rat plasma, heparinized rat whole blood or lung homogenate. […] Lung homogenate samples were prepared by diluting lung homogenate to 1 mg/ml protein concentration with phosphate buffered saline (PBS), followed by addition of 5 uL Working solution to 995 uL diluted lung homogenate. The samples were incubated at 37° C. with gentle shaking (65˜75 rpm) in a water bath incubator. […] Afterwards, a pipetting device (Tecan Temo) was used to transfer the supernatants to another plate and add 50 uL of water to all samples. The plate was vortexed prior to LC-MS analysis. […] The samples are incubated at 37° C. with gentle shaking (65˜75 rpm) in a water bath incubator. […] The reaction mixture is incubated at 37° C. for 1 hour. After completion of reaction, protein precipitation is performed using 300 uL of acetonitrile. […] Afterwards, a pipetting device (Tecan Temo) is used to transfer 125 uL supernatants to another plate and adds 50 uL of water to all samples. […]

Where a SMILES comes first, the peptide text is derived from it. Bridges are numbered along the chain shown (N, C = ends). [ ]: non-standard residue; d: D form. Nle = CCCC[C@H](N)C(=O)O

As to `CCCC[C@H](NC(=O)[C@@H]1CCCN1C(=O)CNC(=O)[C@H](CCCCN)NC(=O)[C@H]1CSSC[C@H](NC(C)=O)C(=O)N[C@@H](CCCNC(=N)N)C(=O)N2CCC[C@H]2C(=O)N[C@@H](CCCNC(=N)N)C(=O)N[C@@H](CC(C)C)C(=O)N[C@@H](CO)C(=O)N1)C(=O)N1CCC[C@H]1C(=O)N[C@@H](Cc1ccccc1)C(=O)O` [Example 15, Ac-C*-R-P-R-L-S-c*-K-G-P-Nle-P-F-OH] (Ac-CRPRLS[dC]KGP[Nle]PF-OH; disulfide 1-7), the EC50 on hAPJ amounted to 193 nM. Further, the half-life in data set [1] turned out to be 0.295 h.
`CCCC[C@@H](NC(=O)[C@@H]1CCCN1C(=O)CNC(=O)[C@H](CCCCN)NC(=O)[C@@H]1CSSC[C@H](NC(=O)[C@@H]2CCCN2C(=O)[C@H](CCCNC(=N)N)NC(=O)[C@@H]2CCC(=O)N2)C(=O)N[C@@H](CC(C)C)C(=O)N[C@@H](CO)C(=O)N1)C(=O)NCCc1ccccc1` [Example 32, pE-R-P-C*-L-S-C*-K-G-P-(D-Nle)-NH(Phenethyl)]: in data set [1], the “Surrogate Activity based Plasma stability t½” value is above 16.67 h and the half-life is above 16.7 h. For the same molecule, in data set [2], the half-life came out at 6.28 h.

The record behind these values is patent US9683019B2, “Cyclic polypeptides for the treatment of heart failure” (priority 2013, dated 2017).
